A short description of the data set: in vitro. The note with it: human, hela cells, % viability.

For 67 compounds, viability results are on record in article PMC12040169 (PLOS Biology, 2025).

In general, viability refers to a read-out of living cells in per cent, often relative to untreated cells.

Regarding `CS(=O)(=O)Nc1cc(-c2noc([C@@H]3CCCN3Cc3ccncc3)n2)ccn1` [CBK288886], the viability at 28.5 h, 10 µM came out at 83.5%. On to `CS(=O)(=O)Nc1cc(-c2noc([C@@H]3CCCN3C3CCOCC3)n2)ccn1` [CBK288887], for which the viability at 28.5 h, 10 µM was found to be 81.8%. The figure for `CS(=O)(=O)Nc1cc(-c2noc([C@@H]3CCCN3C3CCC3)n2)ccn1` [CBK288889] is 112%.

Take `c1ccc(CN2CCC[C@H]2c2nc(-c3ccc(-c4cncnc4)nc3)no2)cc1` [CBK288891]: the viability at 28.5 h, 10 µM came out at 87.5%. Consider `CC(C)N1CCC[C@H]1c1nc(-c2ccc(-c3cncnc3)nc2)no1` [CBK288892], for which the viability at 28.5 h, 10 µM is 115%. Take `CN1CCC[C@H]1c1nc(-c2ccc(-n3ccnc3)nc2)no1` [CBK288893]: the viability at 28.5 h, 10 µM was found to be 96.6%. For the compound `Fc1ccc(-c2noc([C@@H]3CCCN3Cc3ncc[nH]3)n2)nc1` [CBK288897], the viability at 28.5 h, 10 µM came out at 102%.

Turning to `COCc1cc(C[C@H]2CNCC[C@H]2CC(=O)N2CCCCC2)no1` [CBK288899], the viability at 28.5 h, 10 µM was found to be 109%. Consider `CN(C)c1ccc(-c2noc([C@@H]3CCCN3C)n2)cn1` [CBK288902], for which the viability at 28.5 h, 10 µM came out at 104%. Consider `CS(=O)(=O)NC[C@H]1O[C@@H](Cc2nc(-c3ccc(F)cc3)no2)[C@H](O)[C@@H]1O` [CBK288906], for which the viability at 28.5 h, 10 µM was found to be 95.3%. Regarding `O=C(NC[C@H]1O[C@@H](CC(=O)N2CCCC2)[C@H](O)[C@@H]1O)c1ccccc1` [CBK288907], the viability at 28.5 h, 10 µM amounted to 88.5%. Take `O=C(C[C@@H]1O[C@H](CNS(=O)(=O)c2ccccc2)[C@@H](O)[C@H]1O)N1CCCC1` [CBK288909]: the viability at 28.5 h, 10 µM turned out to be 108%. Regarding `Cc1ccc(C(=O)NC[C@H]2O[C@@H](CC(=O)N3CCCC3)[C@H](O)[C@@H]2O)cc1` [CBK288912], the viability at 28.5 h, 10 µM turned out to be 98.9%. In the case of `O=C(C[C@@H]1O[C@H](CNCc2cccc(Cl)c2)[C@@H](O)[C@H]1O)N1CCCC1` [CBK288914], the viability at 28.5 h, 10 µM turned out to be 95%. Take `O=C(NC[C@H]1O[C@@H](CC(=O)N2CCc3ccccc32)[C@H](O)[C@@H]1O)C1CC1` [CBK288915]: the viability at 28.5 h, 10 µM amounted to 105%.

Regarding `O=C(C[C@@H]1O[C@H](CNS(=O)(=O)c2ccccc2)[C@@H](O)[C@H]1O)N1CCc2ccccc21` [CBK288916], the viability at 28.5 h, 10 µM was found to be 91.2%.

Take `Cc1ccc(S(=O)(=O)NC[C@H]2O[C@@H](CC(=O)N3CCc4ccccc43)[C@H](O)[C@@H]2O)cc1` [CBK288917]: the viability at 28.5 h, 10 µM worked out at 91.3%. Turning to `O=C(NC[C@H]1O[C@@H](CC(=O)N2CCN(c3ccccc3)CC2)[C@H](O)[C@@H]1O)c1ccco1` [CBK288919], the viability at 28.5 h, 10 µM came to 97.9%.

For `O=C(NC[C@H]1O[C@@H](CC(=O)N2CCN(c3ccccn3)CC2)[C@H](O)[C@@H]1O)c1ccco1` [CBK288923], the viability at 28.5 h, 10 µM was determined as 102%.

`Cc1ccc(C(=O)NC[C@H]2O[C@@H](CC(=O)N3CCOCC3)[C@H](O)[C@@H]2O)cc1` [CBK288925]: the viability at 28.5 h, 10 µM is 85.5%. For `CC1CCN(C(=O)C[C@@H]2O[C@H](CNC(=O)C3CC3)[C@@H](O)[C@H]2O)CC1` [CBK288926], the viability at 28.5 h, 10 µM came out at 92%. Regarding `COc1ccc(N2C(=S)N(Cc3cccs3)[C@H]3[C@@H](O)[C@H](O)C[C@@H](C(N)=O)[C@H]32)cc1` [CBK288929], the viability at 28.5 h, 10 µM turned out to be 93%.

Turning to `NC(=O)[C@@H]1C[C@@H](O)[C@H](O)[C@H]2[C@@H]1N(c1ccc(Cl)cc1)C(=S)N2Cc1cccs1` [CBK288930], the viability at 28.5 h, 10 µM was found to be 94.7%.

Turning to `CN1CCC(N2C[C@H](O)C[C@H]2c2nc(-c3ccc4c(c3)OCO4)no2)CC1` [CBK288931], the viability at 28.5 h, 10 µM came to 93.6%. Consider `COc1ccc(CN2C(=S)N(c3ccc(OC)cc3)[C@H]3[C@@H]2[C@H]2OC(=O)[C@@H]3C[C@H]2O)cc1` [CBK288934], for which the viability at 28.5 h, 10 µM is 85.4%. For the compound `COc1ccc(CN2C(=S)N(c3ccc(Cl)cc3)[C@H]3[C@@H]2[C@H]2OC(=O)[C@@H]3C[C@H]2O)cc1` [CBK288935], the viability at 28.5 h, 10 µM stood at 99.8%.

On to `COc1ccc(CN2C(=S)N(c3ccccc3)[C@H]3[C@@H]2[C@H]2OC(=O)[C@@H]3C[C@H]2O)cc1` [CBK288937], for which the viability at 28.5 h, 10 µM is 108%. Regarding `CC(C)CN1C(=S)N(Cc2ccc(-c3ccccn3)cc2)[C@H]2[C@H]3OC(=O)[C@H](C[C@H]3O)[C@H]21` [CBK288938], the viability at 28.5 h, 10 µM came to 113%. For `COc1ccc(N2C(=S)N(CC3CCCCC3)[C@H]3[C@H]4OC(=O)[C@H](C[C@H]4O)[C@H]32)cc1` [CBK288939], the viability at 28.5 h, 10 µM turned out to be 108%.

As for `COc1ccc(CN2/C(=N/c3ccccc3)S[C@H]3[C@@H]2[C@@H](O)[C@H](O)C[C@@H]3C(N)=O)cc1` [CBK288941], the viability at 28.5 h, 10 µM turned out to be 102%. As for `O=C([C@@H]1C[C@@H](O)[C@H](O)[C@@H]2NC(=S)N(c3ccc4c(c3)OCO4)[C@@H]21)N1CCCCC1` [CBK288945], the viability at 28.5 h, 10 µM came to 87.3%. Consider `CN(Cc1ccccc1)C(=O)[C@H]1C[C@@H](O)[C@H](O)[C@@H]2N=C(Nc3ccc(Cl)cc3)S[C@@H]21` [CBK288949], for which the viability at 28.5 h, 10 µM was determined as 105%. Take `COc1ccc(NC2=N[C@H]3[C@@H](O)[C@H](O)C[C@H](C(=O)N(C)Cc4ccccc4)[C@H]3S2)cc1` [CBK288950]: the viability at 28.5 h, 10 µM is 96.7%. With `Cc1ccc(NC2=N[C@H]3[C@@H](O)[C@H](O)C[C@H](C(=O)N4CCCCC4)[C@H]3S2)cc1` [CBK288951], the viability at 28.5 h, 10 µM worked out at 94.7%.

Regarding `OCc1ccc(CN2Cc3nc[nH]c3C[C@H]2c2nc(Cc3ccccc3)no2)o1` [CBK288955], the viability at 28.5 h, 10 µM was found to be 93.8%. Turning to `Cc1ccc(-c2noc([C@@H]3Cc4[nH]cnc4CN3C(=O)c3cccs3)n2)cc1` [CBK288957], the viability at 28.5 h, 10 µM was determined as 82.2%. The figure for `Cc1ccc(-c2noc([C@@H]3Cc4[nH]cnc4CN3C(=O)CCC(=O)O)n2)cc1` [CBK288958] is 96.3%; for `O=C(Nc1ccc(Cl)cc1)N1Cc2nc[nH]c2C[C@H]1c1nc(-c2ccncc2)no1` [CBK288964] it is 91.4%; for `COc1ccc(C(=O)N2Cc3nc[nH]c3C[C@H]2c2nc(-c3ccc(OC)cc3)no2)cc1` [CBK288966] it is 107%. As for `COc1ccc(-c2noc([C@@H]3Cc4[nH]cnc4CN3C(=O)CCC(=O)O)n2)cc1` [CBK288967], the viability at 28.5 h, 10 µM amounted to 90.3%. Consider `COc1ccc(-c2noc([C@@H]3Cc4[nH]cnc4CN3C(=O)Nc3ccc(C)cc3)n2)cc1` [CBK288968], for which the viability at 28.5 h, 10 µM came to 92.9%. With `CC(C)c1noc([C@@H]2Cc3[nH]cnc3CN2C(=O)Nc2ccccc2)n1` [CBK288969], the viability at 28.5 h, 10 µM amounted to 86.5%. Regarding `CC(=O)c1ccc(NC(=O)N2Cc3nc[nH]c3C[C@H]2c2nc(-c3ccc(F)cc3)no2)cc1` [CBK288971], the viability at 28.5 h, 10 µM amounted to 83.6%. As to `CCNC(=O)N1Cc2nc[nH]c2C[C@H]1C(=O)NCc1ccc(OC)cc1` [CBK288973], the viability at 28.5 h, 10 µM is 115%. On to `CN1Cc2nc[nH]c2C[C@H]1C(=O)NCc1ccco1` [CBK288979], for which the viability at 28.5 h, 10 µM stood at 88%. The result for `COc1ccc(CN2Cc3nc[nH]c3C[C@H]2C(=O)N2CCC(Cc3ccccc3)CC2)cc1` [CBK288980] reads 110%; that for `COC(=O)[C@@H]1Cc2ncn(Cc3ccc(Cl)cc3)c2CN1C(=O)c1ccc(OC)cc1` [CBK288983], 84.2%; that for `COC(=O)[C@@H]1Cc2ncn(C(C)C)c2CN1S(=O)(=O)c1ccc(C#N)cc1` [CBK288986], 84%.

Turning to `COC(=O)[C@@H]1Cc2ncn(C(C)C)c2CN1C(=O)c1ccccc1` [CBK288987], the viability at 28.5 h, 10 µM amounted to 82.2%. The figure for `COC(=O)[C@@H]1Cc2ncn(C(C)C)c2CN1C(=O)C1CCCCC1` [CBK288989] is 98.9%; for `COC(=O)[C@@H]1Cc2ncn(C)c2CN1S(=O)(=O)c1ccc(C#N)cc1` [CBK288993] it is 83.9%. For `O=C(Nc1ccccc1)N1Cc2nc[nH]c2C[C@H]1c1nc(-c2ccccc2)no1` [CBK288997], the viability at 28.5 h, 10 µM was 84.3%. With `O=C(NC1CCCCC1)N1Cc2nc[nH]c2C[C@H]1c1nc(-c2ccc3c(c2)OCO3)no1` [CBK289000], the viability at 28.5 h, 10 µM is 95.7%. Consider `CC(C)NC(=O)N1Cc2nc[nH]c2C[C@H]1c1nc(-c2ccc3c(c2)OCO3)no1` [CBK289001], for which the viability at 28.5 h, 10 µM was determined as 94.5%. Regarding `CC(C)NC(=O)CC[C@@H]1CNC(=O)[C@@H]2C[C@H](NC(=O)c3ccccc3)CN12` [CBK289002], the viability at 28.5 h, 10 µM is 90.9%. For the compound `O=C(Nc1cccc(Cl)c1)N[C@H]1C[C@H]2C(=O)NC[C@@H](CCC(=O)N3CCCC3)N2C1` [CBK289003], the viability at 28.5 h, 10 µM came to 96.1%. With `O=C(CC[C@@H]1CNC(=O)[C@@H]2C[C@H](NC(=O)C3CC3)CN12)Nc1ccccc1` [CBK289006], the viability at 28.5 h, 10 µM is 113%. On to `O=C(N[C@H]1C[C@H]2C(=O)NC[C@@H](CCC(=O)N3CCCCC3)N2C1)c1cccc(F)c1` [CBK289011], for which the viability at 28.5 h, 10 µM worked out at 85%. For `CN1CCN(C(=O)CC[C@@H]2CNC(=O)[C@@H]3C[C@H](NC(=O)c4cccs4)CN23)CC1` [CBK289013], the viability at 28.5 h, 10 µM is 124%. The result for `CN1CCN(C(=O)CC[C@@H]2CNC(=O)[C@@H]3C[C@H](NC(=O)c4ccccc4)CN23)CC1` [CBK289014] reads 86.7%. In the case of `CN1CCN(C(=O)CC[C@@H]2CNC(=O)[C@@H]3C[C@H](NC(=O)c4cccc(F)c4)CN23)CC1` [CBK289015], the viability at 28.5 h, 10 µM was 92.2%. `COC(=O)CC[C@H]1CNC(=O)[C@@H]2[C@@H](CCN2C)N1C` [CBK289020]: the viability at 28.5 h, 10 µM was 95.4%. For the compound `CN1[C@@H](CCC(=O)NCc2ccc(F)cc2)CNC(=O)[C@@H]2[C@H]1CCN2C1CCOCC1` [CBK289023], the viability at 28.5 h, 10 µM turned out to be 106%. Consider `CC(C)N1CC[C@@H]2[C@H]1C(=O)NC[C@H](CCC(=O)NCc1ccc(F)cc1)N2C` [CBK289024], for which the viability at 28.5 h, 10 µM came to 91.4%. The result for `CC(C)N1CC[C@@H]2[C@H]1C(=O)NC[C@H](CCC(=O)Nc1ccccc1)N2C` [CBK289030] reads 86.1%; that for `CN1[C@@H](CCC(=O)N2CCN(c3ccccn3)CC2)CNC(=O)[C@H]2NCC[C@H]21` [CBK289031], 95.2%. For the compound `C#CCNC(=O)CC[C@H]1CNC(=O)[C@@H]2[C@@H](CCN2Cc2cccs2)N1C` [CBK289033], the viability at 28.5 h, 10 µM stood at 103%.
